Results reported in patent publication US20040224358A1, “Method for discovering one or more peptides adapted for specific binding to a microorganism of interest” (priority 2002, published 2004).

What was measured:
[1] = tested on: lipopolysaccharides from Salmonella; experiment: Dot blot binding of membrane-absorbed peptides to FITC-LPS from Salmonella; conditions: 0-20 μg peptide on PVDF membrane, FIG. 1(b)
Experimental: (§1) Varying amounts of each peptide (ranging from 0-20 μg in 5 μg increments) were absorbed at a flow rate of approximately 0.15 ml/min. The membrane was blocked with 3% gelatin in TBS for 30 minutes at room temperature with gentle agitation and then was washed three times with TBS. Isolated, fluorescently-labeled lipopolysaccharides (FITC-LPS) from E.coli and Salmonella (Sigma Chemical Co.) were diluted in TBS to a final concentration of […] and were then bound to the membrane at room temperature with gentle agitation. The membrane was then washed three times with TBS and imaged on a Storm 860 (Molecular Dynamics, Sunnyvale, Calif.) in blue fluorescence mode.

[2] = tested on: lipopolysaccharides from E.coli; experiment: Dot blot binding of membrane-absorbed peptides to FITC-LPS from E.coli; conditions: 0-20 μg peptide on PVDF membrane, FIG. 1(a)
Experimental: as §1

[3] = tested on: E.coli 0157: H7 cells; experiment: Whole-cell binding of E.coli to immobilized Cys-Cecropin P1 (HRP antibody/TMB, absorbance 650 nm); set-up: species or system E coli serotype 0157: H7 (non-pathogenic); conditions: immobilized peptide, E.coli 0157: H7 whole cells, FIG. 2
Experimental: The binding of cecropin P1 to whole E.colicells was tested as follows: Preparation of whole bacterial cells—E coli serotype 0157: H7 (non-pathogenic) cells from a frozen stock were grown overnight in Luria Broth Base (Life Technologies, Inc., Paisely, Scotland). The bacterial cells were collected by centrifugation at 9000×g for 5 min. The cell pellet was washed 2 times with PBS pH 7.2 and collected each time by centrifugation. The washed cell pellet was resuspended in PBS pH 7.2 to a final volume equivalent to the original culture volume. Optical density of the cell suspension was detected on a Beckmann DU840 spectrophotometer at an absorbance of 540 nm. An absorbance of 4.5 is approximately 3.5×10^9 cfu/ml.
Peptide immobilization—Cys-Cecropin P1 (a modified cecropin p1 prepared by solid phase peptide synthesis wherein cysteine is added to the C-terminus of cecropin p1) was diluted into PBS pH 6.5, 1 mM EDTA, 0.0001 mM DTT (Sigma Chemical Co., St. Louis, Mo.) for immobilization onto sulfhydryl-bind strip wells (Corning Inc., Corning, N.Y.). […]
Detection and color development—E.coli 0157: H7 cells (prepared as above) were added to each well containing immobilized cys-cecropin p1 (described as above). […] Absorbance was then measured on a Thermomax microplate reader (Molecular Devices, Sunnyvale, Calif.) at 650 nm.

Substance | binding to lipopolysaccharides from Salmonella [1] | binding to lipopolysaccharides from E. coli [2] | saturation of whole-cell binding occurs at a concentration of [3]
Buforin I | did not bind | did not bind | –
Cecropin P1 (SWLSKTAKKLENSAKKRISEGIAIAIQGGPR; Cecropin-P1; UniProt P14661 14-44, looked up) | did bind | did bind | 45 to 50 µg
Indolicidin | did bind | did bind | –
PGQ | did bind | did bind | –
